Tests used:
[1] = assay type: physicochemical
Source text: The invention furthermore relates to the stabilisation of UV filters. A known and effective class of light-protection filter substances is formed by the dibenzoylmethane derivatives. However, it is disadvantageous that these substances are decomposed very easily by UV light and their protective properties are thus lost. An example of a commercially available light-protection filter from this class of compounds which may be mentioned is 4-(tert-butyl)-4′-methoxydibenzoylmethane, which has the structure shown below. [drawing 22]
Tiliroside can be used for stabilisation here as the pure substance or in the form of a plant extract. In a preferred embodiment, tiliroside is used in the form of a plant extract, a purified plant extract or in the form of the pure substance prepared from the plant extract.

[2] = UV absorption properties (absorption maximum, shoulder, absorption coefficient); assay type: physicochemical
Source text: Tiliroside absorbs in the UV-B region, i.e. in the wavelength range between 290 and 320 nm, with an absorption maximum at λmax=316 nm, and additionally in the UV-A region, i.e. in the wavelength range between 320 and 400 nm, with an absorption shoulder at λsh=349 nm. The absorption coefficient ε at λmax=316 nm is ε=23260 and at λsh=349 nm is ε=13500.
The absorption coefficient at this wavelength is 23420.

[3] = Inherent colour of the substance; assay type: physicochemical
Source text: The weak inherent colour is, for example, a major advantage if an inherent colour of the ingredients is undesired in the products for aesthetic reasons.

In the case of `O=C(C=Cc1ccc(O)cc1)OC[C@H]1O[C@@H](Oc2c(-c3ccc(O)cc3)oc3cc(O)cc(O)c3c2=O)[C@H](O)[C@@H](O)[C@@H]1O` [Tiliroside, kaempferol 3-(6″-p-coumarylglucoside)], the “stabilising action for dibenzoylmethanes” value [1] is reported as “particularly high stabilising action”, the “absorption shoulder λsh” value ([2]; UV-A region (320 to 400 nm)) is reported as 349 nm and the “absorption in the UV-A region (in words)” value ([2]; UV-A region, tiliroside compared with Eusolex 6300) is reported as “significantly better absorption properties in the UVA region”. For the same compound, the “absorption maximum λmax” value ([2]; UV-B region) was 316 nm, the “absorption coefficient ε at λmax” value ([2]; at the absorption maximum in the UV-B region (tiliroside 316 nm, Eusolex 6300 300 nm)) was 23260 and the “absorption coefficient ε at λsh” value ([2]; at the shoulder λsh=349 nm, UV-A region) was 13500. For the same compound, the inherent colour [3] was “only a weak inherent colour”.
